Activity calls are given as the source filed them.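 The calls were made as follows: active = fitted curve reaches 40% growth rescue activation at or below the top valid tested concentration; inconclusive = flat fit between 30 and 70%, or poor fit quality; inactive = activity opposite to the expected rise, and the rest.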
Key:
[1] = tested on: S. cerevisiae alpha-synuclein toxicity rescue, OD600 growth, 24 h; assay: activators protecting yeast from synuclein toxicity – S. cerevisiae, OD600, dry powder, dose response (AID 602279)
[2] = as above; conditions: S. cerevisiae alpha-synuclein toxicity rescue, OD600 growth, 24 h; at 26 µM (top of the series)

Compound	AC40 [1]	growth rescue activation [2]
Fc1cc(NCc2ccccc2)nc(NCc2ccccc2)n1	> 26 µM (inactive)	–
Cc1ccccc1CSc1nsc(N)n1	> 26 µM (inactive)	–
CC(C)c1ccc(C2NC(=O)c3ccccc3O2)cc1 (centres undefined)	> 26 µM (inactive)	–
O=c1c2ccccc2[nH]c(=S)n1CCC1=CCCCC1	–	18.9% (inactive)
